In US10993985B2, “Methods of treating acute myeloid leukemia” (BioLineRx Ltd., priority 2016, dated 2021):
Positions of bridges follow the written chain, without caps; N, C: chain ends. Non-standard residues stand in square brackets, D forms with d. 2Nal = N[C@@H](Cc1ccc2ccccc2c1)C(=O)O; Cit = NC(=O)NCCC[C@H](N)C(=O)O

Legend:
human AML xenografts = conditions: subcutaneous injections; cited from earlier work
[1] = test system: malignant cells of hematopoietic origin including AML; conditions: cited from earlier work
[2] = test system: blast cells in peripheral blood (PB) of AML patients; assay: Phase 1/2 study: mobilization of blast cells to peripheral blood after BL-8040 in relapsed or refractory AML patients; assay type: in vivo, human
Procedure: In an open-label, single arm, phase 1/2 study, patients diagnosed with AML with relapsed or refractory disease received a once daily subcutaneous (SC) dose of BL-8040 as monotherapy on days 1-2 followed by the same dose of BL-8040 plus Ara-C (1.5 g/m2 for patients ≥60; 3 g/m2 for patients <60) on days 3-7. Six dose levels of BL-8040 (0.5-2.0 mg/kg) were tested in the dose escalation phase with 1.5 mg/kg selected for the expansion phase. Extensive pharmacodynamics (PD) parameters such as the extent of mobilization were assessed during the study. Clinical response to treatment was determined by BM biopsy on day 30.
Measuring Blast-Cell Density in Peripheral Blood (PB) and Bone Marrow (BM)
Bone marrow blast-cell counts were performed using procedures essentially as described by Lee et al. (Int. Jnl. Lab. Hem. 30: 349-364, 2008).
Peripheral blast-cell counts were performed using procedures essentially as described by O'Connor, B. H., A Color Atlas and Instructions Manual of Peripheral Cell Morphology, Lippincot Williams, 1984.
Clinical responses to […] treatment were determined according to the standards of the international working group for AML (Cheson et al., J. Clin. Oncol. 21: 4642-4649, 2003; Döhner et al., Blood 115: 453-474, 2010; and de Greef et al., British Journal of Hematology 128: 184-91, 2005), which are summarized in Table 1 below.

HIV-1 (X4-HIV-1) = conditions: through specific binding to CXCR4; cited from earlier work

4F-benzoyl-Arg-Arg-Nal-Cys-Tyr-Cit-Lys-DLys-Pro-Tyr-Arg-Cit-Cys-Arg-NH2 [BL-8040]
growth of human AML xenografts (human AML xenografts): significantly reduced | cytotoxicity toward malignant cells of hematopoietic origin including AML [1]: CXCR4-dependent preferential cytotoxicity | ratio of PB blast cell density after treatment to initial density prior to treatment ([2]; day 2 following treatment with BL-8040, non-responsive patients (SD and PD)): no increase was observed | ratio of PB blast cell density after treatment to initial density prior to treatment ([2]; day 2 following treatment with BL-8040, responsive patients, CR, prior to cytarabine): 2.1 fold | ratio of PB blast cell density after treatment to initial density prior to treatment ([2]; day 2 following treatment with BL-8040, responsive patients, CRi, prior to cytarabine): 4.0 fold | ratio of PB blast cell density after treatment to initial density prior to treatment ([2]; day 3, 8 hr following day 3 injection (after initiation of cytarabine), non-responsive patients (SD and PD)): no significant increase was observed | ratio of PB blast cell density after treatment to initial density prior to treatment ([2]; day 3, 8 hr following day 3 injection (after initiation of cytarabine), responsive patients, CR): 7.0 fold | ratio of PB blast cell density after treatment to initial density prior to treatment ([2]; day 3, 8 hr following day 3 injection (after initiation of cytarabine), responsive patients, CRi): 4.2 fold | ratio of PB blast cell density after treatment to initial density prior to treatment ([2]; day 3 following initial treatment with BL-8040, non-responsive patients (SD and PD)): no significant increase was observed | ratio of PB blast cell density after treatment to initial density prior to treatment ([2]; day 3 following initial treatment with BL-8040, responsive patients, CR, prior to cytarabine): 2.1 fold | ratio of PB blast cell density after treatment to initial density prior to treatment ([2]; day 3 following initial treatment with BL-8040, responsive patients, CRi, prior to cytarabine): 2.9 fold | increase of PB blast-cell density versus baseline ([2]; non-responsive patients, after 2 or 3 days following first administration of BL-8040): did not increase | increase of PB blast-cell density versus baseline ([2]; responsive patients (CR, CRi or CRp), after 2 days following first administration of BL-8040): 3.7 fold | increase of PB blast-cell density versus baseline ([2]; responsive patients (CR, CRi or CRp), after 3 days following first administration of BL-8040): 3.8 fold

H-Arg-Arg-Nal-Cys-Tyr-Arg-Lys-DLys-Pro-Tyr-Arg-Cit-Cys-Arg-OH (H-RR[2Nal]CYRK[dK]PYR[Cit]CR-OH; disulfide 4-13) [Analog T-140]
HIV-1 (X4-HIV-1) entry to T cells (HIV-1 (X4-HIV-1)): suppress
